According to ChEMBL document CHEMBL3885881, “DrugMatrix”:

Species: Rattus norvegicus
Test: DrugMatrix - Regimen: Daily Repeat
Format: toxicity, organism-based, Sprague-Dawley
Parameters: regimen Daily Repeat, gender Male, age 6-8 weeks
Conditions: in vivo, iv, vehicle 100 % SALINE; for ABSOLUTE BASOPHIL / ABSOLUTE EOSINOPHIL / ABSOLUTE LYMPHOCYTE / ABSOLUTE MONOCYTE / ABSOLUTE SEGMENTED NEUTROPHIL / BASOPHIL / EOSINOPHIL / ERYTHROCYTE COUNT / HEMATOCRIT / LEUKOCYTE COUNT / LYMPHOCYTE / MEAN CORPUSCULAR HEMOGLOBIN / MEAN CORPUSCULAR HEMOGLOBIN CONCENTRATION / MEAN CORPUSCULAR VOLUME / MONOCYTE / NEUTROPHIL / NUCLEATED RED BLOOD CELLS / PLATELET COUNT / HEMOGLOBIN: tissue Blood
[1] = 0 mg/kg, 72 h, dose level Control, time 3 day
[2] = 0 mg/kg, 72 h, tissue Plasma, dose level Control, time 3 day
[3] = 0 mg/kg, 120 h, dose level Control, time 5 day
[4] = 0 mg/kg, 120 h, tissue Plasma, dose level Control, time 5 day
[5] = 8 mg/kg, 72 h, dose level High, time 3 day
[6] = 8 mg/kg, 72 h, tissue Plasma, dose level High, time 3 day
[7] = 8 mg/kg, 120 h, dose level High, time 5 day
[8] = 8 mg/kg, 120 h, tissue Plasma, dose level High, time 5 day

## OXALIPLATIN
[1]
  ABSOLUTE BASOPHIL: 0 CELLS/uL
  ABSOLUTE EOSINOPHIL: 0 CELLS/uL
  ABSOLUTE LYMPHOCYTE: 7637.67 CELLS/uL
  ABSOLUTE MONOCYTE: 67.83 CELLS/uL
  ABSOLUTE SEGMENTED NEUTROPHIL: 661.17 CELLS/uL
  BASOPHIL: 0%
  EOSINOPHIL: 0%
  ERYTHROCYTE COUNT: 5.38 x10E6/uL
  HEMATOCRIT: 33.67%
  LEUKOCYTE COUNT: 8.37 x10E3/uL
  LYMPHOCYTE: 91.17%
  MEAN CORPUSCULAR HEMOGLOBIN: 23.95 pg
  MEAN CORPUSCULAR HEMOGLOBIN CONCENTRATION: 38.23 G/DL
  MEAN CORPUSCULAR VOLUME: 62.6 fL
  MONOCYTE: 0.83%
  NEUTROPHIL: 8%
  NUCLEATED RED BLOOD CELLS: 0.17 /100WBC
  PLATELET COUNT: 865 x10E3/uL
[2]
  ALANINE AMINOTRANSFERASE: 51.67 u/L
  ALKALINE PHOSPHATASE: 351.17 u/L
  ASPARTATE AMINOTRANSFERASE: 82.33 u/L
  BLOOD UREA NITROGEN: 15.17 mg/dL
  CARBON DIOXIDE: 34.5 mmol/L
  CHLORIDE: 100 MEQ/L
  CHOLESTEROL: 80.33 mg/dL
  CREATINE PHOSPHOKINASE: 316.5 u/L
  CREATININE: 0.17 mg/dL
  LACTATE DEHYDROGENASE: 105.67 u/L
  LIPASE: 9.5 u/L
  PHOSPHORUS: 10.87 mg/dL
  POTASSIUM: 5.47 MEQ/L
  TOTAL BILIRUBIN: 0.2 mg/dL
  TOTAL PROTEIN: 5.83 G/DL
  URIC ACID: 0.83 mg/dL
[3]
  ABSOLUTE BASOPHIL: 0 CELLS/uL
  ABSOLUTE EOSINOPHIL: 0 CELLS/uL
  ABSOLUTE LYMPHOCYTE: 6333.5 CELLS/uL
  ABSOLUTE MONOCYTE: 38.83 CELLS/uL
  ABSOLUTE SEGMENTED NEUTROPHIL: 661 CELLS/uL
  BASOPHIL: 0%
  EOSINOPHIL: 0%
  ERYTHROCYTE COUNT: 5.44 x10E6/uL
  HEMATOCRIT: 34.17%
  HEMOGLOBIN: 13.22 G/DL
  LEUKOCYTE COUNT: 7.03 x10E3/uL
  LYMPHOCYTE: 90.17%
  MEAN CORPUSCULAR HEMOGLOBIN: 24.38 pg
  MEAN CORPUSCULAR HEMOGLOBIN CONCENTRATION: 38.7 G/DL
  MEAN CORPUSCULAR VOLUME: 62.95 fL
  MONOCYTE: 0.5%
  NUCLEATED RED BLOOD CELLS: 0 /100WBC
  PLATELET COUNT: 924.33 x10E3/uL
[4]
  ALANINE AMINOTRANSFERASE: 52.5 u/L
  ALKALINE PHOSPHATASE: 364.83 u/L
  ASPARTATE AMINOTRANSFERASE: 82.5 u/L
  BLOOD UREA NITROGEN: 17 mg/dL
  CARBON DIOXIDE: 32.33 mmol/L
  CHLORIDE: 99.6 MEQ/L
  CHOLESTEROL: 75.83 mg/dL
  CREATINE PHOSPHOKINASE: 419 u/L
  CREATININE: 0.21 mg/dL
  GLUCOSE: 155 mg/dL
  LIPASE: 11.33 u/L
  PHOSPHORUS: 10.32 mg/dL
  POTASSIUM: 5.37 MEQ/L
  TOTAL BILIRUBIN: 0.18 mg/dL
  TOTAL PROTEIN: 5.98 G/DL
  URIC ACID: 0.62 mg/dL
[5]
  ABSOLUTE BASOPHIL: 0 CELLS/uL
  ABSOLUTE EOSINOPHIL: 0 CELLS/uL
  ABSOLUTE LYMPHOCYTE: 4377.33 CELLS/uL
  ABSOLUTE MONOCYTE: 16.67 CELLS/uL
  ABSOLUTE SEGMENTED NEUTROPHIL: 339.33 CELLS/uL
  BASOPHIL: 0%
  EOSINOPHIL: 0%
  ERYTHROCYTE COUNT: 5.41 x10E6/uL
  HEMATOCRIT: 33.23%
  HEMOGLOBIN: 12.83 G/DL
  LEUKOCYTE COUNT: 4.73 x10E3/uL
  LYMPHOCYTE: 92.67%
  MEAN CORPUSCULAR HEMOGLOBIN CONCENTRATION: 38.63 G/DL
  MONOCYTE: 0.33%
  NEUTROPHIL: 7%
  NUCLEATED RED BLOOD CELLS: 0 /100WBC
  PLATELET COUNT: 1068.33 x10E3/uL
[6]
  ALANINE AMINOTRANSFERASE: 44.67 u/L
  ALBUMIN: 4.3 G/DL
  ALKALINE PHOSPHATASE: 356.33 u/L
  ASPARTATE AMINOTRANSFERASE: 77.33 u/L
  BLOOD UREA NITROGEN: 16.67 mg/dL
  CARBON DIOXIDE: 34.33 mmol/L
  CHLORIDE: 99 MEQ/L
  CHOLESTEROL: 76 mg/dL
  CREATINE PHOSPHOKINASE: 301 u/L
  CREATININE: 0.12 mg/dL
  LACTATE DEHYDROGENASE: 153.67 u/L
  POTASSIUM: 5.69 MEQ/L
  TOTAL BILIRUBIN: 0.2 mg/dL
  TOTAL PROTEIN: 6.2 G/DL
  URIC ACID: 0.67 mg/dL
[7]
  ABSOLUTE BASOPHIL: 0 CELLS/uL
  ABSOLUTE EOSINOPHIL: 0 CELLS/uL
  ABSOLUTE LYMPHOCYTE: 3427.33 CELLS/uL
  ABSOLUTE MONOCYTE: 20 CELLS/uL
  ABSOLUTE SEGMENTED NEUTROPHIL: 186 CELLS/uL
  BASOPHIL: 0%
  EOSINOPHIL: 0%
  ERYTHROCYTE COUNT: 5.56 x10E6/uL
  HEMATOCRIT: 33.2%
  HEMOGLOBIN: 12.67 G/DL
  LEUKOCYTE COUNT: 3.63 x10E3/uL
  LYMPHOCYTE: 93.33%
  MEAN CORPUSCULAR HEMOGLOBIN: 22.77 pg
  MEAN CORPUSCULAR HEMOGLOBIN CONCENTRATION: 38.17 G/DL
  MONOCYTE: 0.67%
  NEUTROPHIL: 6%
  NUCLEATED RED BLOOD CELLS: 0.33 /100WBC
  PLATELET COUNT: 976 x10E3/uL
[8]
  ALANINE AMINOTRANSFERASE: 50 u/L
  ALKALINE PHOSPHATASE: 285.67 u/L
  ASPARTATE AMINOTRANSFERASE: 73.67 u/L
  BLOOD UREA NITROGEN: 16.67 mg/dL
  CARBON DIOXIDE: 33.67 mmol/L
  CHLORIDE: 98 MEQ/L
  CHOLESTEROL: 68.33 mg/dL
  CREATINE PHOSPHOKINASE: 268.33 u/L
  CREATININE: 0.16 mg/dL
  GLUCOSE: 141 mg/dL
  LACTATE DEHYDROGENASE: 86 u/L
  LIPASE: 9 u/L
  PHOSPHORUS: 9 mg/dL
  POTASSIUM: 5.38 MEQ/L
  TOTAL BILIRUBIN: 0.13 mg/dL
  TOTAL PROTEIN: 6.33 G/DL
  URIC ACID: 0.6 mg/dL
